Our source for the Activity values is ChEMBL document CHEMBL5584282, “The New Frontier in Neurotherapeutics: From Brain Stimulation to Novel Psychotropics” (ACS Med Chem Lett, 2024).

Holding throughout (assay type): functional, cell-based
Experiment [1] relates to Cortical neurone. The experiment is described as follows: Neuroplasticity effect in Wistar rat brain cortical neuron assessed as neurite outgrowth by measuring increase in neurite number at <=10 uM incubated for 72 hrs by DAPI staining based imaging analysis.
The subject of experiment [2] is Cortical neurone. The experiment is described as follows: Neuroplasticity effect in Wistar rat brain cortical neuron assessed as neurite outgrowth by measuring increase in neurite length at <=10 uM incubated for 72 hrs by DAPI staining based imaging analysis.
In experiment [3] the test system is Cortical neurone. Briefly: Neuroplasticity effect in Wistar rat brain cortical neuron assessed as neurite outgrowth by measuring increase in neurite branching at <=10 uM incubated for 72 hrs by DAPI staining based imaging analysis.

The source made the active and inactive calls. No cut-off for these calls is given here.

With `COc1cccc2oc3c(c12)CCNCC3`, the outcome in the experiment on Cortical neurone [1], in the experiment with Cortical neurone [2] and in the experiment on Cortical neurone [3] was inactive.

For `COc1cccc2oc3c(c12)CCN(C1CCC1)CC3`, the result in the experiment with Cortical neurone [1], in the experiment with Cortical neurone [2] and in the experiment on Cortical neurone [3] was Active.

Regarding `COc1ccc2c3c(oc2c1)CCCN(C1CCC1)C3`, the result in the experiment with Cortical neurone [1], in the experiment with Cortical neurone [2] and in the experiment with Cortical neurone [3] was Active.

Take `FC(F)(F)CN1CCc2sc3ccccc3c2CC1`: in the experiment on Cortical neurone [1], the outcome was inactive. The outcome in the experiment with Cortical neurone [2] and with Cortical neurone [3] was Active.

With `Fc1ccc2c3c(oc2c1)CCCNC3`, the outcome with Cortical neurone [1], in the experiment on Cortical neurone [2] and in the experiment on Cortical neurone [3] was Active.

`Fc1cccc2oc3c(c12)CCN(C1CCC1)CC3`: the result with Cortical neurone [1] and in the experiment with Cortical neurone [2] was Active. Also, in the experiment on Cortical neurone [3], the outcome was inactive.

`COc1ccc2c3c(oc2c1)CCCN(C)C3`: the outcome in the experiment with Cortical neurone [1], with Cortical neurone [2] and in the experiment with Cortical neurone [3] was Active.

Turning to `Fc1cccc2oc3c(c12)CN(CC(F)(F)F)CCC3`, the outcome in the experiment on Cortical neurone [1], with Cortical neurone [2] and in the experiment on Cortical neurone [3] was Active.

With `CN1CCCc2oc3cccc(F)c3c2C1`, the result with Cortical neurone [1], with Cortical neurone [2] and in the experiment on Cortical neurone [3] was Active.

In the case of `COc1cccc2oc3c(c12)CN(C1CCC1)CCC3`, the outcome in the experiment on Cortical neurone [1], in the experiment on Cortical neurone [2] and in the experiment on Cortical neurone [3] was inactive.

`CN1CCc2oc3cccc(F)c3c2CC1`: the result in the experiment on Cortical neurone [1] was inactive. The result in the experiment with Cortical neurone [2] and in the experiment with Cortical neurone [3] was Active.

Consider `COc1ccc2c3c(sc2c1)CCNCC3`, for which the result with Cortical neurone [1], with Cortical neurone [2] and with Cortical neurone [3] was Active.

Turning to `Fc1cccc2oc3c(c12)CN(C1CCC1)CCC3`, the result in the experiment with Cortical neurone [1], in the experiment on Cortical neurone [2] and in the experiment on Cortical neurone [3] was Active.

As for `COc1ccc2c3c(oc2c1)CCCN(CC(F)(F)F)C3`, the outcome in the experiment with Cortical neurone [1], with Cortical neurone [2] and in the experiment on Cortical neurone [3] was Active.

Regarding `FC(F)(F)Oc1cccc2sc3c(c12)CCN(C1CCC1)CC3`, the outcome with Cortical neurone [1], in the experiment with Cortical neurone [2] and in the experiment on Cortical neurone [3] was Active.
